The values that follow come from patent US7253187B2, “Heterocyclic inhibitors of ERK2 and uses thereof” (Vertex Pharmaceuticals Incorporated, priority 2001, dated 2007).

In test [1] the test system is Colon cancer cells (HT-29 cell line). The test can be described thus: ERK2 inhibition: cell proliferation assay (3H-thymidine uptake). The test is classed as cell-based. The conditions noted are these: Homo sapiens, 3 days. As to the method: Compounds may be assayed for the inhibition of ERK2 by a cell proliferation assay. […] Colon cancer cells (HT-29 cell line) are added to each of 84-wells of a 96 well plate at a seeding density of 10,000 cells/well/150 μL. The cells are allowed to attach to the plate by incubating at 37° C. for 2 hours. […] The test compound solution (50 μL) is added to each of 72 cell-containing wells. To the 12 remaining cell-containing wells, only complete media (200 μL) is added to form a control group in order to measure maximal proliferation. To the remaining 12 empty wells, complete media is added to form a vehicle control group in order to measure background. The plates are incubated at 37° C. for 3 days. A stock solution of ^3H-thymidine (1 mCi/mL, New England Nuclear, Boston, Mass.) is diluted to 20 μCi/mL in RPMI medium then 20 μL of this solution is added to each well. The plates are further incubated at 37° C. for 8 hours then harvested and analyzed for ^3H-thymidine uptake using a liquid scintillation counter.

For another test, the target named is T1, GSK-3β (AA 1–420) (Homo sapiens, UniProt P49841).
T1 construct: GSK-3β (AA 1–420)
T1 sequence (P49841 whole entry, species assumed, the tested form may be a part): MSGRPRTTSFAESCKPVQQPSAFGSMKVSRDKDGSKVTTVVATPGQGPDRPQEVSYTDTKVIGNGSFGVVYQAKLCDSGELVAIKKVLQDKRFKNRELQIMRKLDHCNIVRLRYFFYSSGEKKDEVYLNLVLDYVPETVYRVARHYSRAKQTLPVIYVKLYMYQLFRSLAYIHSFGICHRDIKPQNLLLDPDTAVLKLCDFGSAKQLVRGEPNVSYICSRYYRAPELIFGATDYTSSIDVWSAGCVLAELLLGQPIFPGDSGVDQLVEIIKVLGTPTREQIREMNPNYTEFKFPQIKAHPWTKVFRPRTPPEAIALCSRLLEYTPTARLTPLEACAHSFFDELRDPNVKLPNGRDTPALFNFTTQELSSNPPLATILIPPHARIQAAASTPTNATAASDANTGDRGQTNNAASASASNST
Nature of the test: GSK-3 inhibition assay (coupled enzyme system). The test is classed as biochemical. The conditions noted are these: read-out: GSK3 Inhibitory Activity (Ki class). An outline of the steps: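 ADP production read via pyruvate kinase/lactate dehydrogenase–coupled NADH consumption over 10 min at 30 °C. Ki derived from rates versus inhibitor concentration.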

In a further test the target is T2, Aurora-2 (Homo sapiens, UniProt O14965).
T2 sequence (O14965 1-403): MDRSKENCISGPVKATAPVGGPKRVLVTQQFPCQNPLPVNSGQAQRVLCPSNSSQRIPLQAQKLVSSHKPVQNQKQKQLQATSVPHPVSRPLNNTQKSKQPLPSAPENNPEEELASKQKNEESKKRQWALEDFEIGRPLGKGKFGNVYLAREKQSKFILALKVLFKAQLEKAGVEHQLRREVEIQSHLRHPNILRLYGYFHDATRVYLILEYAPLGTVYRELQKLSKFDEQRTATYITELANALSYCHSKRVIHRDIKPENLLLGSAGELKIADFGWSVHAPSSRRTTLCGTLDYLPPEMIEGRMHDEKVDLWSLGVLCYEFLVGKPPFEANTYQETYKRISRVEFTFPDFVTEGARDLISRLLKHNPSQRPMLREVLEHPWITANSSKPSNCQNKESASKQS
Nature of the test: Aurora-2 inhibition assay (coupled enzyme assay). The test is classed as biochemical. Here is the method:
Compounds were screened in the following manner for their ability to inhibit Aurora-2 using a standard coupled enzyme assay (Fox et al (1998) Protein Sci 7, 2249).
To an assay stock buffer solution containing 0.1M HEPES 7.5, 10 mM MgCl2, 1 mM DTT, 25 mM NaCl, 2.5 mM phosphoenolpyruvate, […], 30 mg/ml pyruvate kinase, 10 mg/ml lactate dehydrogenase, […], and 800 μM peptide (LRRASLG, American Peptide, Sunnyvale, Calif.) was added a DMSO solution of a compound of the present invention to a final concentration of 30 μM. The resulting mixture was incubated at 30° C. for 10 min. The reaction was initiated by the addition of 10 μL of Aurora-2 stock solution to give a final concentration of 70 nM in the assay. The rates of reaction were obtained by monitoring absorbance at 340 nm over a 5 minute read time at 30° C. using a BioRad Ultramark plate reader (Hercules, Calif.). The Ki values were determined from the rate data as a function of inhibitor concentration.

A further test addresses ERK2 (Homo sapiens, UniProt P28482). The test can be described thus: ERK2 inhibition assay (spectrophotometric coupled-enzyme assay). The test is classed as biochemical. The following applies: read-out: ERK2 Inhibitory Activity (Ki class D-F). Here is the method: The IC50 was evaluated from the rate data as a function of inhibitor concentration. […] The compound numbers correspond to the compound numbers in Table 1.

The target of another test is ERK1 (Homo sapiens, UniProt P27361). The test can be described thus: ERK1 inhibition assay (spectrophotometric coupled-enzyme assay). The test is classed as biochemical. The conditions noted are these: read-out: inhibit ERK1 with an activity (Ki). As to the method:
Compounds were assayed for the inhibition of ERK1 by a spectrophotometric coupled-enzyme assay (Fox et al (1998) Protein Sci 7, 2249). In this assay, a fixed concentration of activated ERK1 (20 nM) was incubated with various concentrations of the compound in DMSO (2.0%) for 10 min. at 30° C. in 0.1 M HEPES buffer, pH 7.6, containing 10 mM MgCl2, 2.5 mM-phosphoenolpyruvate, 200 μM NADH, 30 μg/mL pyruvate kinase, 10 μg/mL lactate dehydrogenase, and 150 μM erktide peptide. The reaction was initiated by the addition of 140 μM ATP (20 μL). The rate of decrease of absorbance at 340 nm was monitored. The Ki was evaluated from the rate data as a function of inhibitor concentration.

The target in a further test is AKT3 (Homo sapiens, UniProt Q9Y243). Nature of the test: AKT3 inhibition assay (coupled enzyme assay). The test is classed as biochemical. Here is the method:
Compounds were screened for their ability to inhibit AKT3 using a standard coupled enzyme assay (Fox et al., Protein Sci., (1998) 7, 2249). Assays were carried out in a mixture of 100 mM HEPES 7.5, 10 mM MgCl2, 25 mM NaCl , 1 mM DTT and 1.5% DMSO. Final substrate concentrations in the assay were 170 μM ATP (Sigma Chemicals) and 200 μM peptide (RPRAATF, American Peptide, Sunnyvale, Calif.). Assays were carried out at 30° C. and 45 nM AKT3. Final concentrations of the components of the coupled enzyme system were 2.5 mM phosphoenolpyruvate, 300 μM NADH, 30 μg/ML pyruvate kinase and 10 μg/ml lactate dehydrogenase.
An assay stock buffer solution was prepared containing all of the reagents listed above, with the exception of AKT3, DTT, and the test compound of interest. 56 μl of the stock solution was placed in a 384 well plate followed by addition of 1 μl of 2 mM DMSO stock containing the test compound (final compound concentration 30 μM). The plate was preincubated for about 10 minutes at 30° C. and the reaction initiated by addition of 10 μl of enzyme (final concentration 45 nM) and 1 mM DTT. Rates of reaction were obtained using a BioRad Ultramark plate reader (Hercules, Calif.) over a 5 minute read time at 30° C.

For orientation: IC50 means the concentration that gives 50% inhibition. A word on the Ki: it is a measure of affinity in units of concentration, obtained from inhibition or displacement.

Sequence of ERK2 (P28482 whole entry): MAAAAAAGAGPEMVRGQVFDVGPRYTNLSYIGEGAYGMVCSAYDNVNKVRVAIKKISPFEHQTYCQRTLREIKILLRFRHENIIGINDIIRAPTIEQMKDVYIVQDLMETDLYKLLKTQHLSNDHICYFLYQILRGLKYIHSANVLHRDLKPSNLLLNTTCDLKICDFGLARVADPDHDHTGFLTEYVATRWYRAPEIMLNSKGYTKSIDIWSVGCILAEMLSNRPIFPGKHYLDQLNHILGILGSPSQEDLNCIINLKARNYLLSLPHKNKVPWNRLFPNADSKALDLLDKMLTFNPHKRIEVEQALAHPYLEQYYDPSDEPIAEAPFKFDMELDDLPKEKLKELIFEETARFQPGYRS
Sequence of ERK1 (P27361 whole entry, species assumed): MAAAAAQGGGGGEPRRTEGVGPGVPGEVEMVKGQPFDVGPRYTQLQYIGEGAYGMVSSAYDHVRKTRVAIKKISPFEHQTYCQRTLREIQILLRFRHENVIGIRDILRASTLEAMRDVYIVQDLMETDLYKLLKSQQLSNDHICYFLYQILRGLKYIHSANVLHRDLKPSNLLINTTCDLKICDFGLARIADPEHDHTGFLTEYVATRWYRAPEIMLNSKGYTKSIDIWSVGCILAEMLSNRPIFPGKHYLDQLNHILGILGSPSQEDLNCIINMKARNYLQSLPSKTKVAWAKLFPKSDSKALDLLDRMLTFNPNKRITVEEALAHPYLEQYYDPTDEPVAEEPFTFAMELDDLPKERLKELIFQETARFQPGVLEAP
Sequence of AKT3 (Q9Y243 whole entry, species assumed): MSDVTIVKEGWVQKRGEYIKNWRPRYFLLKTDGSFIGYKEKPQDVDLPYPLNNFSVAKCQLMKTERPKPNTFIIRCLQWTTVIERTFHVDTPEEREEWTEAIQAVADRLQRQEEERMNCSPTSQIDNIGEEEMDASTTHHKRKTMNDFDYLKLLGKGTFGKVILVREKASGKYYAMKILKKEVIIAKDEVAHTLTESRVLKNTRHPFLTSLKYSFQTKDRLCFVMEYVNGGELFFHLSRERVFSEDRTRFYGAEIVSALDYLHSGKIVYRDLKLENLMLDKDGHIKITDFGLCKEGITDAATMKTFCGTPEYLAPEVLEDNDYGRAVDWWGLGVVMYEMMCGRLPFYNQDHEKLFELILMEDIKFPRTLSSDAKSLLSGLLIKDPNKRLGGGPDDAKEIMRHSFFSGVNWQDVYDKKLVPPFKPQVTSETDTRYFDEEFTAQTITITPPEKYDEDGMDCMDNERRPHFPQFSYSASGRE

`Cc1cnc(Nc2cccc(F)c2)nc1-c1c[nH]c(C(=O)NC(CO)c2ccccc2)c1` (stereo not drawn) [III-a-136, 4-[2-(3-Fluoro-phenylamino)-5-methyl-pyrimidin-4-yl]-1H-pyrrole-2-carboxylic acid (2-hydroxy-1-phenyl-ethyl)-amide] showed an IC50 in test [1] of less than 0.1 µM. In addition, the Ki at GSK-3β (AA 1–420) is less than 0.1 µM. The “found to inhibit Aurora-2” value at Aurora-2 was “found to inhibit Aurora-2”.

Turning to `Cc1cnc(Nc2ccc3c(c2)OCO3)nc1-c1c[nH]c(C(=O)NC(CO)c2ccccc2)c1` (stereo not drawn) [III-a-139, 4-[2-(Benzo[1,3]dioxol-5-ylamino)-5-methyl-pyrimidin-4-yl]-1H-pyrrole-2-carboxylic acid (2-hydroxy-1-phenyl-ethyl)-amide], the Ki on ERK2 and on GSK-3β (AA 1–420) was less than 0.1 µM in each case. Also, the IC50 in test [1] is less than 0.1 µM. The “found to inhibit Aurora-2” value on Aurora-2 is listed as “found to inhibit Aurora-2”.

Take `Cc1cnc(NC2CC2)nc1-c1c[nH]c(C(=O)NC(CO)c2cccc(C(F)(F)F)c2)c1` (stereo not drawn) [III-a-202, 4-(2-Cyclopropylamino-5-methyl-pyrimidin-4-yl)-1H-pyrrole-2-carboxylic acid [2-hydroxy-1-(3-trifluoromethyl-phenyl)-ethyl]-amide]: the Ki at ERK2 was less than 0.1 µM; on ERK1 it was less than 0.1 µM; on GSK-3β (AA 1–420), more than 1 µM.

Regarding `Cc1cccc(C(CO)NC(=O)c2cc(-c3nc(NC4CC4)ncc3C)c[nH]2)c1` (stereo not drawn) [III-a-205, 4–1(2-Cyclopropylamino-5-methyl-pyrimidin-4-yl)-1H-pyrrole-2-carboxylic acid (2-hydroxy-1-m-tolyl-ethyl)-amide], the Ki on ERK2 is less than 0.1 µM; on ERK1, less than 0.1 µM; on GSK-3β (AA 1–420) it was 0.1 to 1 µM.

Regarding `Cc1cnc(NC#N)nc1-c1c[nH]c(C(=O)NC(CO)c2ccccc2)c1` (stereo not drawn) [III-a-238, 4-(2-Cyanoamino-5-methyl-pyrimidin-4-yl)-1H-pyrrole-2-carboxylic acid (2-hydroxy-1-phenyl-ethyl)-amide], at ERK2, the Ki was less than 0.1 µM. For the same molecule, on AKT3, the “inhibit AKT3” value is “inhibit AKT3”.
